Results taken from ChEMBL document CHEMBL1143466, “Conformationally constrained N1-arylsulfonyltryptamine derivatives as 5-HT6 receptor antagonists” (Bioorg Med Chem Lett, 2005).

How the values were obtained:
[1] = target: T1, 5-hydroxytryptamine receptor 6 (Homo sapiens, UniProt P50406); assay: Displacement of [3H]LSD from cloned human 5-hydroxytryptamine 6 receptor expressed in HeLa cells; format: cell-based
[2] = target: T1, 5-hydroxytryptamine receptor 6; assay: Effective concentration for cAMP production in HeLa cells expressing human 5-HT6 receptors; format: functional, cell-based
[3] = target: T1, 5-hydroxytryptamine receptor 6; assay: Maximum effective concentration for cAMP production in HeLa cells expressing human 5-HT6 receptors; format: functional, cell-based
[4] = target: T1, 5-hydroxytryptamine receptor 6; assay: Inhibition of cAMP production in HeLa cells expressing human 5-HT6 receptor; format: functional, cell-based
[5] = target: T1, 5-hydroxytryptamine receptor 6; assay: Maximum inhibition of cAMP production in HeLa cells expressing human 5-HT6 receptors; format: functional, cell-based

T1 sequence (P50406 whole entry): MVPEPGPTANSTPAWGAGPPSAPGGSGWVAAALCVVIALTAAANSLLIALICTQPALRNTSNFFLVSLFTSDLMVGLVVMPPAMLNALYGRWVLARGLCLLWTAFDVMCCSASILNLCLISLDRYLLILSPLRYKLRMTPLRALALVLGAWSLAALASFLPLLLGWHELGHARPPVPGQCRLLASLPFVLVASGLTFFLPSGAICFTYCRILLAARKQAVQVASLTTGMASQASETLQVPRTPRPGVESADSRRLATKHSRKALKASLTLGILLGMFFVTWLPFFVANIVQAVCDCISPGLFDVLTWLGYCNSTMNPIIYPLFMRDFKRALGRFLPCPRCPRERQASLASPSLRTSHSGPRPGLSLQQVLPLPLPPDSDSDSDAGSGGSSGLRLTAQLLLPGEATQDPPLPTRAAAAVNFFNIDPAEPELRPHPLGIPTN

Row | SMILES | Ki [1] | IC50 [4] | Imax [5] | also measured
1 | O=S(=O)(c1ccccc1)n1cc(C2CCCNC2)c2ccccc21 (stereo in doubt) [listing 1 of 2 here] | 1 nM |  |  | EC50 [2]: 36 nM
2 | O=S(=O)(c1ccc(Cl)s1)n1cc(C2=CCCNC2)c2ccccc21 | 22.7 nM |  |  | 
3 | Nc1ccc(S(=O)(=O)n2c3c(c4ccccc42)CCNC3)cc1 | 116 nM |  |  | 
4 | O=S(=O)(c1ccc(Cl)s1)n1cc(C[C@@H]2CCCN2)c2ccccc21 | 25 nM |  |  | 
5 | O=S(=O)(c1cccc(Cl)c1)n1c2c(c3ccccc31)CCNC2 | 41.7 nM |  |  | 
6 | O=S(=O)(c1ccc(Cl)c(Cl)c1)n1cc(C[C@@H]2CCCN2)c2ccccc21 | 49 nM |  |  | 
7 | O=S(=O)(c1ccccc1F)n1cc(C2=CCCNC2)c2ccccc21 | 9.2 nM |  |  | Emax [3]: 52%; EC50 [2]: 51 nM
8 | CN1CCC[C@H]1Cc1cn(S(=O)(=O)c2ccccc2Br)c2ccccc12 | 7 nM | 76.5 nM | 87.5% | 
9 | O=S(=O)(c1ccc(F)cc1)n1cc(C2=CCCNC2)c2ccccc21 | 10.5 nM |  |  | Emax [3]: 62%; EC50 [2]: 345 nM
10 | CN1CCC[C@H]1Cc1cn(S(=O)(=O)c2ccc(Cl)cc2)c2ccccc12 | 7 nM | 8.2 nM | 86% | 
11 | CN1CCC[C@H]1Cc1cn(S(=O)(=O)c2ccc(I)cc2)c2ccccc12 | 3 nM | 49.5 nM | 99.5% | 
12 | Nc1ccc(S(=O)(=O)n2cc(C[C@@H]3CCCN3)c3ccccc32)cc1 | 7 nM | 7.6 nM | 72.9% | 
13 | O=S(=O)(c1ccc(I)cc1)n1cc(C[C@@H]2CCCN2)c2ccccc21 | 34 nM |  |  | 
14 | Cc1ccc(S(=O)(=O)n2cc(C[C@@H]3CCCN3C)c3ccccc32)cc1 | 5 nM | 56.3 nM | 78.5% | 
15 | CN1CCC(c2cn(S(=O)(=O)c3ccc(Cl)cc3)c3ccccc23)C1 (centres undefined) |  | 85.5 nM | 86.5% | 
16 | O=S(=O)(c1ccc(Br)s1)n1cc(C2CCN(Cc3ccccc3)C2)c2ccccc21 (centres undefined) |  | 110 nM | 69% | 
17 | O=S(=O)(c1ccccc1)n1cc(C[C@@H]2CCCN2)c2ccccc21 | 27.7 nM |  |  | 
18 | O=S(=O)(c1ccc(Cl)s1)n1cc(C2CCCNC2)c2ccccc21 (centres undefined) |  |  |  | Emax [3]: 93%; EC50 [2]: 58.5 nM
19 | Cc1c(S(=O)(=O)n2cc(C[C@H]3CCCN3)c3ccccc32)sc2ccc(Cl)cc12 | 284 nM |  |  | 
20 | COc1ccc(S(=O)(=O)n2cc(C[C@@H]3CCCN3)c3ccccc32)cc1OC | 23 nM |  |  | 
21 | O=S(=O)(c1ccccc1)n1cc(C2CCCNC2)c2ccccc21 (single isomer, unassigned; enantiomer 1) [listing 1 of 2 here] | 3 nM |  |  | 
22 | CN1CCC(c2cn(S(=O)(=O)c3ccc(F)cc3)c3ccccc23)C1 (centres undefined) |  | 52.5 nM | 83.5% | 
23 | CN1CCC[C@H]1Cc1cn(S(=O)(=O)c2ccccc2)c2ccccc12 | 5 nM | 81.4 nM | 87% | 
24 | COc1ccc(S(=O)(=O)n2cc(C[C@@H]3CCCN3C)c3ccccc32)cc1OC | 8 nM | 0.8 nM | 100% | 

Row | SMILES | Ki [1] | IC50 [4] | Imax [5] | also measured
25 | CN1CCC[C@H]1Cc1cn(S(=O)(=O)c2ccc(Cl)c(Cl)c2)c2ccccc12 | 12 nM | 7.3 nM | 86.5% | 
26 | O=S(=O)(c1ccccc1)n1cc(C2CCCNC2)c2ccccc21 (racemic) [listing 1 of 2 here] |  |  |  | Emax [3]: 100%
27 | O=S(=O)(c1cccs1)n1cc(C2CCCNC2)c2ccccc21 (centres undefined) | 9.8 nM |  |  | 
28 | O=S(=O)(c1ccc(Cl)cc1)n1cc(C2=CCCNC2)c2ccccc21 | 22 nM |  |  | 
29 | O=S(=O)(c1ccccc1Br)n1cc(C2CCN(Cc3ccccc3)C2)c2ccccc21 (centres undefined) |  | 21 nM | 62% | 
30 | O=S(=O)(c1ccc(Cl)c(Cl)c1)n1cc(C2CCN(Cc3ccccc3)C2)c2ccccc21 (centres undefined) |  | 61 nM | 63% | 
31 | Cc1nn(C)c(Cl)c1S(=O)(=O)n1cc(C2=CCCNC2)c2ccccc21 | 8 nM |  |  | Emax [3]: 50%; EC50 [2]: 89.5 nM
32 | COc1ccc(S(=O)(=O)n2cc(C[C@@H]3CCCN3)c3ccccc32)cc1 | 40 nM |  |  | 
33 | CN1CCC(c2cn(S(=O)(=O)c3ccc(Cl)c(Cl)c3)c3ccccc23)C1 (centres undefined) |  | 107 nM | 100% | 
34 | Cc1nc(C)c(S(=O)(=O)n2cc(C3=CCCNC3)c3ccccc32)o1 | 58 nM |  |  | 
35 | Cc1nc(N)sc1S(=O)(=O)n1cc(C2CCN(Cc3ccccc3)C2)c2ccccc21 (centres undefined) |  | 110 nM | 97% | 
36 | O=S(=O)(c1ccccc1)n1cc(C2CCCNC2)c2ccccc21 (racemic) [listing 2 of 2 here] |  |  |  | EC50 [2]: 24 nM
37 | O=S(=O)(c1cccc(C(F)(F)F)c1)n1cc(C2=CCCNC2)c2ccccc21 | 44.7 nM |  |  | 
38 | O=S(=O)(c1ccccc1)n1cc(C2CCCNC2)c2ccccc21 (stereo in doubt) [listing 2 of 2 here] |  |  |  | Emax [3]: 100%
39 | O=S(=O)(c1ccc(F)c(F)c1)n1cc(C2CCCNC2)c2ccccc21 (centres undefined) |  |  |  | Emax [3]: 60.5%; EC50 [2]: 66 nM
40 | CN1CCC(c2cn(S(=O)(=O)c3ccc(I)cc3)c3ccccc23)C1 (centres undefined) |  | 43.6 nM | 93.5% | 
41 | CN1CCC(c2cn(S(=O)(=O)c3ccccc3Br)c3ccccc23)C1 (centres undefined) |  | 53.3 nM | 98.5% | 
42 | O=S(=O)(c1ccccc1)n1cc(C2CCCNC2)c2ccccc21 (single isomer, unassigned; enantiomer 1) [listing 2 of 2 here] |  |  |  | Emax [3]: 0%
43 | COc1ccc(S(=O)(=O)n2cc(C[C@@H]3CCCN3C)c3ccccc32)cc1 | 19.3 nM |  |  | 
44 | CN1CCC[C@@H]1Cc1cn(S(=O)(=O)c2ccccc2)c2ccccc12 | 8 nM | 0.6 nM | 75% | 
45 | Nc1ccc(S(=O)(=O)n2cc(C3CCN(Cc4ccccc4)C3)c3ccccc32)cc1 (centres undefined) |  | 25 nM | 97% | 
46 | O=S(=O)(c1cccc(Cl)c1)n1cc(C[C@@H]2CCCN2)c2ccccc21 | 22 nM |  |  | 
47 | O=S(=O)(c1ccc(Cl)c(Cl)c1)n1cc(C2=CCCNC2)c2ccccc21 | 48 nM |  |  | 
48 | Cc1ccc(S(=O)(=O)n2c3c(c4ccccc42)CCNC3)cc1 | 271 nM |  |  | 

Row | SMILES | Ki [1] | IC50 [4] | Imax [5] | also measured
49 | O=S(=O)(c1ccc(Br)s1)n1cc(C[C@@H]2CCCN2)c2ccccc21 | 20 nM |  |  | 
50 | O=S(=O)(c1ccccc1Cl)n1cc(C2=CCCNC2)c2ccccc21 | 13 nM |  |  | 
51 | Cc1ccc(S(=O)(=O)n2cc(C3CCN(Cc4ccccc4)C3)c3ccccc32)cc1 (centres undefined) |  | 123 nM | 72% | 
52 | O=S(=O)(c1ccccc1C(F)(F)F)n1cc(C2=CCCNC2)c2ccccc21 | 21.7 nM |  |  | 
53 | CN1CCC[C@H]1Cc1cn(S(=O)(=O)c2ccc(Cl)s2)c2ccccc12 | 4 nM | 1 nM | 99% | 
54 | O=S(=O)(c1ccc(Cl)cc1)n1cc(C[C@@H]2CCCN2)c2ccccc21 | 49 nM |  |  | 
55 | O=S(=O)(c1ccccc1)n1c2c(c3ccccc31)CCNC2 | 253 nM |  |  | 
56 | Cc1c(S(=O)(=O)n2cc(C[C@@H]3CCCN3C)c3ccccc32)sc2ccc(Cl)cc12 | 11 nM | 11 nM | 87.5% | 
57 | CN1CCC[C@@H]1Cc1cn(S(=O)(=O)c2ccc(Br)s2)c2ccccc12 | 4 nM |  |  | Emax [3]: 76.5%; EC50 [2]: 103 nM
58 | O=S(=O)(c1ccc(F)c(F)c1)n1cc(C2=CCCNC2)c2ccccc21 | 26 nM |  |  | 
59 | O=S(=O)(c1ccc(F)cc1F)n1cc(C2=CCCNC2)c2ccccc21 | 13 nM |  |  | 
60 | Cc1ccc(S(=O)(=O)n2cc(C[C@@H]3CCCN3)c3ccccc32)cc1 | 33 nM |  |  | 
61 | CN1CCC[C@H]1Cc1cn(S(=O)(=O)c2ccc(Br)s2)c2ccccc12 | 3 nM | 112 nM | 96% | 
62 | COc1ccc(S(=O)(=O)n2cc(C3=CCCNC3)c3ccccc32)cc1 | 16 nM |  |  | 
63 | Cc1c(S(=O)(=O)n2cc(C3CCCNC3)c3ccccc32)sc2ccc(Cl)cc12 (centres undefined) | 44 nM |  |  | 
64 | O=S(=O)(c1cccc(Cl)c1Cl)n1cc(C2=CCCNC2)c2ccccc21 | 20 nM |  |  | 
65 | COc1ccc(S(=O)(=O)n2cc(C3CCCNC3)c3ccccc32)cc1 (centres undefined) |  | 7.3 nM | 65.5% | 
66 | CN1CCC[C@H]1Cc1cn(S(=O)(=O)c2cccc(Cl)c2)c2ccccc12 | 4 nM | 96.2 nM | 77% | 
67 | O=S(=O)(c1ccccc1Br)n1cc(C[C@@H]2CCCN2)c2ccccc21 | 43 nM |  |  | 
68 | O=S(=O)(c1cccc(Cl)c1)n1cc(C2=CCCNC2)c2ccccc21 | 14 nM |  |  | 
69 | CN1CCC[C@H]1Cc1cn(S(=O)(=O)c2ccc(N)cc2)c2ccccc12 | 3 nM | 24.5 nM | 100% | 
70 | COc1ccc(S(=O)(=O)n2cc(C3CCN(C)C3)c3ccccc32)cc1OC (centres undefined) |  | 96.7 nM | 100% | 
71 | CN1CCC(c2cn(S(=O)(=O)c3ccc(N)cc3)c3ccccc23)C1 (centres undefined) |  | 15.5 nM | 89.5% | 
